Common to all, as to type: functional
For assay [1], the target named is Calcium-dependent protein kinase 1 (Plasmodium falciparum, UniProt P62344). Nature of the assay: MMV: CDPK1 Protein kinase inhibition assay using recombinant PfCDPK1, syntide 2 peptide substrate, ATP and KinaseGlo to measure % inhibition at 1 uM MMV box compound. Background: Kinase-Glo reads ATP consumption through a luciferase reaction.
The target of assay [2] is T1, Calcium-dependent protein kinase 4 (Plasmodium falciparum (isolate 3D7), UniProt Q8IBS5).
T1 sequence (Q8IBS5 whole entry): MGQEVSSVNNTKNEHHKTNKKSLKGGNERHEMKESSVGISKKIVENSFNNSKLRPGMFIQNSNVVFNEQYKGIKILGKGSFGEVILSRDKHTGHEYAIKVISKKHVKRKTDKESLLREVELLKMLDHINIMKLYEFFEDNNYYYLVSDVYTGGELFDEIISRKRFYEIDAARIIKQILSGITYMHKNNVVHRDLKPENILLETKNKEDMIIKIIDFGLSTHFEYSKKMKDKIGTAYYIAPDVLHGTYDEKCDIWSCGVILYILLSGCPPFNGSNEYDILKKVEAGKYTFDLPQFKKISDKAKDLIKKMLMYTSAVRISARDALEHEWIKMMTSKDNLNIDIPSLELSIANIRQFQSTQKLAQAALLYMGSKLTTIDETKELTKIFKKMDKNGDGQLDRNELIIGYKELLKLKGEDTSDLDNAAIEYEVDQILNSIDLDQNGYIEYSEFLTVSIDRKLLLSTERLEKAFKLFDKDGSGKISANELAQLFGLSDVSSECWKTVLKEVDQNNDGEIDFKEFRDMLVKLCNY
The assay is described as follows: MMV: CDPK4 Protein kinase inhibition assay using recombinant PfCDPK4, syntide2 peptide substrate, ATP and KinaseGlo to measure % inhibition at 1 uM MMV box compound.

The target in assay [3] is T2, Proline--tRNA ligase (Plasmodium falciparum (isolate 3D7), UniProt Q8I5R7).
T2 sequence (Q8I5R7 whole entry): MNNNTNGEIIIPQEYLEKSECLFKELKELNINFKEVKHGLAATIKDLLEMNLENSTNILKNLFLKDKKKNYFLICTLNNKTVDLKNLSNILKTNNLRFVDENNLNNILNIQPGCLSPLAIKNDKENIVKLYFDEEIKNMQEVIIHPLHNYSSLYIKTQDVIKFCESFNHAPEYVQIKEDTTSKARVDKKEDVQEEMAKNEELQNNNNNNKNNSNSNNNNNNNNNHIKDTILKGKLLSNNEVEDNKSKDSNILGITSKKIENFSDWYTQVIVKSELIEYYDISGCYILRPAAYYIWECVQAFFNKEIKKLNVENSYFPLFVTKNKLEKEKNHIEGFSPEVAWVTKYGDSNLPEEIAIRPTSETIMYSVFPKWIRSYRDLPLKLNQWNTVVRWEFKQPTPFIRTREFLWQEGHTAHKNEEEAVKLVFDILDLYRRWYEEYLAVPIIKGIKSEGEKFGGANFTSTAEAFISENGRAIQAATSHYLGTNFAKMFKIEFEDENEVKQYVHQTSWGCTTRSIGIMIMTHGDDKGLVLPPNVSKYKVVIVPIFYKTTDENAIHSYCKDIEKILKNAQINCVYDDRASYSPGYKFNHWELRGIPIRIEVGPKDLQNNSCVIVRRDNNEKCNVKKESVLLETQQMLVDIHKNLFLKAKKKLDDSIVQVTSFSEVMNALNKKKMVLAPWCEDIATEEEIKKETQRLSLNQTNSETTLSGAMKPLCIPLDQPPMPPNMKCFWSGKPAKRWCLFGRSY
Nature of the assay: MMV: ProRS recombinant Plasmodium falciparum Prolyl-tRNA-synthetase, assay with yeast tRNA, ATP, and proline and 3 uM MMV malaria box compound, assay read out with kinase glo as % inhibition.

Assay [4] concerns the target T3, Putative uncharacterized protein pk7 (Plasmodium falciparum, UniProt O96214).
T3 sequence (O96214 whole entry): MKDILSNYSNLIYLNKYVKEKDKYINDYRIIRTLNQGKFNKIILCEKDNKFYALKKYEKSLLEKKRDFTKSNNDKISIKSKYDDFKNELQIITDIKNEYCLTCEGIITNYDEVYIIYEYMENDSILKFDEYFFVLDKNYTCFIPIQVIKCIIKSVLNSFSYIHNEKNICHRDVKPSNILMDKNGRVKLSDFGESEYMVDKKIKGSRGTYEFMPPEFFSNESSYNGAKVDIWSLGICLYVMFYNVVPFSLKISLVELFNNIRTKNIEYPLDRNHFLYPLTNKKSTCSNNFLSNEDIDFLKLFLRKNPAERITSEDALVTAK
Nature of the assay: Final concentrations were 1 uM ATP, 2 mM DTT, 20 mM MgCl2, 2 mM MnCl2, 0.01% BSA, and 6 ug/ml PK7, in a buffer of 20 mM Tris-HCl (pH 7.5). The enzyme itself was the only substrate present (since autophosphorylation occurs); 100 uM 1NA-PP1 was used as a control inhibitor. Incubation time was 3 hours.

For assay [5], the target named is Lysine--tRNA ligase (Plasmodium falciparum (isolate 3D7), UniProt Q8IDJ8). The assay is described as follows: MMV: KRS recombinant Plasmodium falciparum Lysyl-tRNA-synthetase, assay with yeast tRNA, ATP, and lysine and 3 uM MMV malaria box compound, assay read out with kinase glo as % inhibition.
Chain of Lysine--tRNA ligase (Q8IDJ8 whole entry): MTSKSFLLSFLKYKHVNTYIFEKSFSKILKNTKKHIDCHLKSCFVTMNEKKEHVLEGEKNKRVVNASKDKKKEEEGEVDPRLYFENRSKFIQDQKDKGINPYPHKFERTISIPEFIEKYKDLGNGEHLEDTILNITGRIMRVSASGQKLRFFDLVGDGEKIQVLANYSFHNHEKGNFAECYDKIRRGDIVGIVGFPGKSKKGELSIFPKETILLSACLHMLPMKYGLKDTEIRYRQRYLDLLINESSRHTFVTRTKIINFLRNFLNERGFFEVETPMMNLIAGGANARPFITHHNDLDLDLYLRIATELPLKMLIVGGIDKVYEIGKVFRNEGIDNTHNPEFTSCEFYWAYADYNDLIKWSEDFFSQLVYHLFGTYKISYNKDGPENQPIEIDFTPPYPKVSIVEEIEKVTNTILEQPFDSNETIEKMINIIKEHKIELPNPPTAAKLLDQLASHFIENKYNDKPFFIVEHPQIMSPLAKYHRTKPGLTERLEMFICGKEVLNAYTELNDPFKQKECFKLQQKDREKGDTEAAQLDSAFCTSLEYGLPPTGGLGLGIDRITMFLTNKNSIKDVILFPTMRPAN
In assay [6] the target is T4, Cdk-related protein kinase 6 (Plasmodium falciparum, UniProt O77239).
T4 sequence (O77239 whole entry): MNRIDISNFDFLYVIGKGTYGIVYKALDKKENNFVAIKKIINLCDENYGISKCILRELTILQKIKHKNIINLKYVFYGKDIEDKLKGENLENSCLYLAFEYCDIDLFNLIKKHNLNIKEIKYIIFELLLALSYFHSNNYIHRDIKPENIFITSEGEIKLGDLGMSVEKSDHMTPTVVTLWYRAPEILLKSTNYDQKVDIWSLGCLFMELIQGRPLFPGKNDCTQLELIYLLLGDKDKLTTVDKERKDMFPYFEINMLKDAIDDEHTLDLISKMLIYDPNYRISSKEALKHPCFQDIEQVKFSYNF
The assay is described as follows: Final concentrations were 1.5 uM ATP, 5 mM MnCl2, and 15 ug/ml PK6 in a buffer of 100 mM Tris-HCl (pH 7.5). 50 ug/mL MBP was provided as the substrate; 10 uM staurosporine was used as a control inhibitor. Incubation time was 3 hours and 40 minutes.The catalytic activity of each kinase was considered proportional to ATP consumed, as determined from measurements of residual [ATP] with the luciferase-based reagent Kinase-Glo (Promega) following incubation. Luminescence (proportional to residual [ATP]) was measured on the plate readers FLx800 (BioTek Instruments, Winooski, VT, USA) and MicroBeta2.

Assay [7] deals with T5, Mitogen-activated protein kinase (Plasmodium falciparum, UniProt Q25917).
T5 sequence (Q25917 whole entry): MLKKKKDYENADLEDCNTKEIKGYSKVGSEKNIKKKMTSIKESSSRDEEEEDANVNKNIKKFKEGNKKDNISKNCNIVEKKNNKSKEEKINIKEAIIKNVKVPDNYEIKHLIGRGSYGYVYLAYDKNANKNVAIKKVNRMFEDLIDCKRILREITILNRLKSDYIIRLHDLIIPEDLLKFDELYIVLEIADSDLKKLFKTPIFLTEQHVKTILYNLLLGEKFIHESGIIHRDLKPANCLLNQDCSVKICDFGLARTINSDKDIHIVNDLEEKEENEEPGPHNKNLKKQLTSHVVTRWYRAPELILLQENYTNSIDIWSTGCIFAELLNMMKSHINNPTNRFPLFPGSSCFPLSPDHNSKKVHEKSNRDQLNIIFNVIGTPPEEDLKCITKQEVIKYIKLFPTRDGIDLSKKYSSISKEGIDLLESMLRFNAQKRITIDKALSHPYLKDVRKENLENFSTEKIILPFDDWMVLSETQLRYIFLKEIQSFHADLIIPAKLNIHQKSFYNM
Nature of the assay: Final concentrations were 1 uM ATP, 0.5 mM DTT, 1 mM MgCl2, 0.5 mg/mL BSA, and 10 ug/ml MAP2 in a buffer of 50 mM HEPES (pH 7.0). 0.5 mg/mL histone III-S served as the substrate (13); 100 uM AMP-PNP, an ATP analog, was used as a control inhibitor. Incubation time was 4 hours.

Chain of Calcium-dependent protein kinase 1 (P62344 whole entry): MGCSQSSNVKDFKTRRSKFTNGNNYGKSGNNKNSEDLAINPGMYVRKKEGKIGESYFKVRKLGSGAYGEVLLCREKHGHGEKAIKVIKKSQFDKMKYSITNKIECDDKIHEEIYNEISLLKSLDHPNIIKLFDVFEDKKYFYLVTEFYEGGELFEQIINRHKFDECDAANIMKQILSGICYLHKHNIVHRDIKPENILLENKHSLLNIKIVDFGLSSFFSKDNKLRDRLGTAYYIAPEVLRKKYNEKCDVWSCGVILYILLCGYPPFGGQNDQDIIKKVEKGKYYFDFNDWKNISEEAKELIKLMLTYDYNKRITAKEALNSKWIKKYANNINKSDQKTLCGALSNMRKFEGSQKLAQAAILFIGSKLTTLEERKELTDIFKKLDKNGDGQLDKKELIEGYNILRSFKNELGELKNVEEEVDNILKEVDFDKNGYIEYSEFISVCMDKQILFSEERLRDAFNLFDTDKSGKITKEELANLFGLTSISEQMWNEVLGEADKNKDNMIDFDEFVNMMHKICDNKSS

The IC50 is the point on the concentration scale where inhibition reaches its midpoint. For `O=C(NC1CCCCC1)C(c1cccs1)N(CCc1ccccc1)C(=O)c1ccco1` (stereo not drawn), the IC50 in assay [1] was greater than 1000 nM; in assay [2] it was greater than 1000 nM; in assay [3], greater than 2500 nM; in assay [4], greater than 1000 nM; in assay [5], greater than 2500 nM; in assay [6], greater than 1000 nM. Further, the IC50 in assay [7] is greater than 1000 nM.
Take `c1ccc2c(NCCCCCCNc3c4c(nc5ccccc35)CCCC4)c3c(nc2c1)CCCC3`: the IC50 is greater than 1000 nM in assay [1]; greater than 1000 nM in assay [2]; greater than 2500 nM in assay [3]; greater than 1000 nM in assay [4]; greater than 2500 nM in assay [5]; greater than 1000 nM in assay [6]. The compound also gave an IC50 in assay [7] greater than 1000 nM.
Regarding `COc1ccc(C2NCCc3c2[nH]c2ccccc32)cc1CN1CCN(c2ccc(F)cc2)CC1` (stereo not drawn), the IC50 in assay [1] is greater than 1000 nM; in assay [2], greater than 1000 nM; in assay [3] it was greater than 2500 nM; in assay [4] it was greater than 1000 nM; in assay [5], greater than 2500 nM; in assay [6] it was greater than 1000 nM. The compound also gave a half-maximal inhibitory concentration (IC50) in assay [7] greater than 1000 nM.
On to `Cc1ccc(C)c(Cn2c(N3CCC(C(=O)NCc4cccs4)CC3)nc3ccccc32)c1`, for which the IC50 in assay [1] is greater than 1000 nM; in assay [2] it was greater than 1000 nM; in assay [3] it was greater than 2500 nM; in assay [4], greater than 1000 nM; in assay [5], greater than 2500 nM; in assay [6] it was greater than 1000 nM. In assay [7], this compound came in with a half-inhibitory concentration (IC50) greater than 1000 nM.
On to `Cc1ccccc1OCCSc1nc2ccc(NC(=O)c3cccs3)cc2s1`, for which the IC50 in assay [1] was greater than 1000 nM; in assay [2] it was greater than 1000 nM; in assay [3], greater than 2500 nM; in assay [4] it was greater than 1000 nM; in assay [5], greater than 2500 nM; in assay [6], greater than 1000 nM. This compound also had an IC50 in assay [7] greater than 1000 nM.
Turning to `CCN(CC)CCCNc1ccnc2cc3ccccc3cc12`, the IC50 in assay [1] was greater than 1000 nM; in assay [2], greater than 1000 nM; in assay [3], greater than 2500 nM; in assay [4], greater than 1000 nM; in assay [5], greater than 2500 nM; in assay [6], greater than 1000 nM. Besides, the IC50 in assay [7] was greater than 1000 nM.
In the case of `O=C(Nc1ccc(-c2nc3cc4ccccc4cc3[nH]2)cc1)c1cccc(Br)c1`, the IC50 in assay [1] is greater than 1000 nM; in assay [2], greater than 1000 nM; in assay [3] it was greater than 2500 nM; in assay [4], greater than 1000 nM; in assay [5], greater than 2500 nM; in assay [6], greater than 1000 nM. In assay [7], this compound showed an IC50 greater than 1000 nM.
Regarding `COc1ccc(C(O)(CCC(C)C)C(CN2CCOCC2)c2ccc(Cl)cc2)cc1` (stereo not drawn), the IC50 in assay [1] was greater than 1000 nM; in assay [2], greater than 1000 nM; in assay [3], greater than 2500 nM; in assay [4] it was greater than 1000 nM; in assay [5] it was greater than 2500 nM; in assay [6], greater than 1000 nM. Besides, the IC50 in assay [7] was greater than 1000 nM.
For the compound `CCCOCc1cc(CN2CCN(c3cccc(Cl)c3)CC2)c(O)c2ncccc12`, the IC50 in assay [1] was greater than 1000 nM; in assay [2], greater than 1000 nM; in assay [3] it was greater than 2500 nM; in assay [4], greater than 1000 nM; in assay [5], greater than 2500 nM; in assay [6], greater than 1000 nM. In addition, in assay [7], the concentration for half-maximal inhibition (IC50) was greater than 1000 nM.
With `COc1ccc(C(=O)NC(c2ccccc2Cl)c2cc(Cl)c3cccnc3c2O)cc1` (stereo not drawn), the IC50 in assay [1] was greater than 1000 nM; in assay [2], greater than 1000 nM; in assay [3], greater than 2500 nM; in assay [4], greater than 1000 nM; in assay [5], greater than 2500 nM; in assay [6] it was greater than 1000 nM. The compound also yielded an IC50 in assay [7] greater than 1000 nM.
As to `CCCCCCC(O)(c1ccc(F)cc1)C(CN1CCOCC1)c1ccccc1` (stereo not drawn), the IC50 in assay [1] was greater than 1000 nM; in assay [2], greater than 1000 nM; in assay [3], greater than 2500 nM; in assay [4], greater than 1000 nM; in assay [5], greater than 2500 nM; in assay [6], greater than 1000 nM. In assay [7], the IC50 was greater than 1000 nM.
As for `COc1cc(OC)cc(N2C(=O)N(Cc3ccc(C(C)(C)C)cc3)c3ccccc3S2(=O)=O)c1`, the IC50 was greater than 1000 nM in assay [1]; greater than 1000 nM in assay [2]; greater than 2500 nM in assay [3]; greater than 1000 nM in assay [4]; greater than 2500 nM in assay [5]; greater than 1000 nM in assay [6]. In assay [7], this compound gave an IC50 greater than 1000 nM.
For the compound `CCOc1c(Br)cc(C2C(C(=O)OC)=CN(C)C=C2C(=O)OC)cc1OC`, the IC50 in assay [1] is greater than 1000 nM; in assay [2] it was greater than 1000 nM; in assay [3] it was greater than 2500 nM; in assay [4], greater than 1000 nM; in assay [5], greater than 2500 nM; in assay [6], greater than 1000 nM. The IC50 in assay [7] was greater than 1000 nM.
On to `CCOC(=O)c1c[nH]c2c(CC)cccc2c1=O`, for which the IC50 in assay [1] is greater than 1000 nM; in assay [2], greater than 1000 nM; in assay [3] it was greater than 2500 nM; in assay [4], greater than 1000 nM; in assay [5] it was greater than 2500 nM; in assay [6], greater than 1000 nM. The compound also came in with an IC50 in assay [7] greater than 1000 nM.

For the origin of these results see ChEMBL document CHEMBL3301562, “MMV Box screening against Plasmodium falciparum protein kinases and aminoacyl tRNA synthetases”.
